PubChem BioAssay AID248 (DTP/NCI, 2004)
Toxic doses and inconclusive results are not listed. Rule as the data show it: active = T/C of 150% or more; inactive = T/C below 125%.

Tested on: L1210 leukemia ip in BDF1 mice, survival T/C
Experiment: NCI In Vivo Anticancer Drug Screen. Data for tumor model L1210 Leukemia (intraperitoneal) in B6D2F1 (BDF1) mice
Conditions: endpoint: mean survival time, higher = longer survival
In short: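 Antitumor effect is assessed in tumor-bearing animals. Survival in the compound arm is compared with a vehicle-dosed control arm and expressed as their quotient.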

[1] = dose: 100.0 mg/kg/injection, schedule: Q01DX001 (ip), vehicle: saline
[2] = dose: 100.0 mg/kg/injection, schedule: Q04DX003 (ip), vehicle: Klucel (hydroxypropylcellulose) (HPC)
[3] = dose: 200.0 mg/kg/injection, schedule: Q04DX003 (ip), vehicle: Klucel (hydroxypropylcellulose) (HPC)
[4] = dose: 400.0 mg/kg/injection, schedule: Q04DX003 (ip), vehicle: Klucel (hydroxypropylcellulose) (HPC)
[5] = dose: 100.0 mg/kg/injection, schedule: Q04DX003 (ip), vehicle: saline with Tween-80
[6] = dose: 200.0 mg/kg/injection, schedule: Q04DX003 (ip), vehicle: saline with Tween-80
[7] = dose: 400.0 mg/kg/injection, schedule: Q04DX003 (ip), vehicle: saline with Tween-80
[8] = dose: 100.0 mg/kg/injection, schedule: Q04DX002 (ip), vehicle: Klucel (hydroxypropylcellulose) (HPC)
[9] = dose: 200.0 mg/kg/injection, schedule: Q04DX002 (ip), vehicle: Klucel (hydroxypropylcellulose) (HPC)
[10] = dose: 400.0 mg/kg/injection, schedule: Q04DX002 (ip), vehicle: Klucel (hydroxypropylcellulose) (HPC)

Measured: T/C

COc1cccc(C(=O)O)c1N
inactive: dose: 25.0 mg/kg/injection, schedule: Q01DX001 (ip), vehicle: Klucel (hydroxypropylcellulose) (HPC) 102 % of control | dose: 50.0 mg/kg/injection, schedule: Q01DX001 (ip), vehicle: Klucel (hydroxypropylcellulose) (HPC) 98 % of control | dose: 100.0 mg/kg/injection, schedule: Q01DX001 (ip), vehicle: Klucel (hydroxypropylcellulose) (HPC) 91 % of control

O=C(NNC(=O)NC1OCC(O)C(O)C1O)Nc1ccccc1 (configuration not stated)
inactive: dose: 100.0 mg/kg/injection, schedule: Q01DX009 (ip), vehicle: saline with Tween-80 97 % of control | dose: 200.0 mg/kg/injection, schedule: Q01DX009 (ip), vehicle: saline with Tween-80 100 % of control | dose: 400.0 mg/kg/injection, schedule: Q01DX009 (ip), vehicle: saline with Tween-80 97 % of control

CC(=O)[O][Pb]([O]C(C)=O)([O]C(C)=O)[c]1ccccc1
inactive: dose: 6.25 mg/kg/injection, schedule: Q01DX009 (ip), vehicle: gum acacia 102 % of control | dose: 12.5 mg/kg/injection, schedule: Q01DX009 (ip), vehicle: gum acacia 98 % of control | dose: 25.0 mg/kg/injection, schedule: Q01DX009 (ip), vehicle: gum acacia 95 % of control | dose: 50.0 mg/kg/injection, schedule: Q01DX009 (ip), vehicle: gum acacia 103 % of control | [1] 97 % of control | dose: 100.0 mg/kg/injection, schedule: Q04DX002 (ip), vehicle: gum acacia 107 % of control | dose: 200.0 mg/kg/injection, schedule: Q01DX001 (ip), vehicle: saline 103 % of control | dose: 200.0 mg/kg/injection, schedule: Q04DX002 (ip), vehicle: gum acacia 103 % of control

Cc1ccnc2c3c4c(cc12)c(C)cc(=O)n4CO3
inactive: dose: 75.0 mg/kg/injection, schedule: Q01DX001 (ip), vehicle: Klucel (hydroxypropylcellulose) (HPC) 104 % of control | dose: 150.0 mg/kg/injection, schedule: Q01DX001 (ip), vehicle: Klucel (hydroxypropylcellulose) (HPC) 95 % of control | dose: 150.0 mg/kg/injection, schedule: Q01DX009 (ip), vehicle: Klucel (hydroxypropylcellulose) (HPC) 114 % of control | dose: 300.0 mg/kg/injection, schedule: Q01DX001 (ip), vehicle: Klucel (hydroxypropylcellulose) (HPC) 98 % of control

CCOC1(OCC)CCC2(CC1)c1ccccc1-c1ccccc12
inactive: [2] 92 % of control | [3] 93 % of control | [4] 95 % of control

CC1(C)OC2COC(OCc3ccccc3)C(OCc3ccccc3)C2O1 (configuration not stated)
inactive: [5] 97 % of control | [6] 103 % of control | [7] 97 % of control

CNc1ccccc1C(=O)N/N=C/c1c(O)ccc2ccccc12
inactive: dose: 100.0 mg/kg/injection, schedule: Q04DX002 (ip), vehicle: saline 99 % of control | dose: 200.0 mg/kg/injection, schedule: Q04DX002 (ip), vehicle: saline 96 % of control | dose: 400.0 mg/kg/injection, schedule: Q04DX002 (ip), vehicle: saline 96 % of control

c1ccc(-c2nnn(CCn3nnc(-c4ccccc4)n3)n2)cc1
inactive: [2] 102 % of control | [3] 104 % of control | [4] 98 % of control

CC(C)N1CN(C(C)C)CN(C(C)C)C1
inactive: dose: 25.0 mg/kg/injection, schedule: Q01DX009 (ip), vehicle: saline 103 % of control | dose: 25.0 mg/kg/injection, schedule: Q04DX003 (ip), vehicle: saline 99 % of control | dose: 50.0 mg/kg/injection, schedule: Q01DX009 (ip), vehicle: saline 93 % of control | dose: 50.0 mg/kg/injection, schedule: Q04DX003 (ip), vehicle: saline 99 % of control | dose: 100.0 mg/kg/injection, schedule: Q04DX003 (ip), vehicle: saline 87 % of control

CCC(C)(C(=O)O)C(=O)O
inactive: [1] 103 % of control

CCOC(=O)C(COC)C(C(=O)CC)C(=O)OCC (configuration not stated)
inactive: dose: 100.0 mg/kg/injection, schedule: Q01DX001 (ip), vehicle: other 102 % of control | dose: 200.0 mg/kg/injection, schedule: Q01DX001 (ip), vehicle: other 89 % of control | dose: 400.0 mg/kg/injection, schedule: Q01DX001 (ip), vehicle: other 96 % of control

CC1CC(C(=O)O)Cc2c1nc1ccccc1c2C(=O)O (configuration not stated)
inactive: dose: 100.0 mg/kg/injection, schedule: Q04DX002 (ip), vehicle: saline with Tween-80 100 % of control | dose: 200.0 mg/kg/injection, schedule: Q04DX002 (ip), vehicle: saline with Tween-80 93 % of control | dose: 400.0 mg/kg/injection, schedule: Q04DX002 (ip), vehicle: saline with Tween-80 96 % of control

CCOC(=O)c1cnc(SC)nc1NCc1ccccc1C
inactive: [5] 94 % of control | [6] 94 % of control | [7] 92 % of control

Cc1cc(=O)cc(Nc2ccccc2)o1
inactive: [8] 93 % of control | [9] 90 % of control | [10] 101 % of control

O=C(O)c1ncn[nH]1
inactive: dose: 100.0 mg/kg/injection, schedule: Q01DX009 (ip), vehicle: Klucel (hydroxypropylcellulose) (HPC) 95 % of control | [8] 89 % of control | [2] 101 % of control | dose: 200.0 mg/kg/injection, schedule: Q01DX009 (ip), vehicle: Klucel (hydroxypropylcellulose) (HPC) 100 % of control | [9] 115 % of control | [3] 95 % of control | dose: 400.0 mg/kg/injection, schedule: Q01DX009 (ip), vehicle: Klucel (hydroxypropylcellulose) (HPC) 100 % of control | [10] 89 % of control | [4] 108 % of control
